Patent US11834672B2, “Method for producing hypophysis precursor tissue” (RIKEN, priority 2011, dated 2023)
“Also recorded” adds a separate entry of the source. Ends that are not written are not given here.

Tests used:
[1] = test system: ES cell-derived pituitary precursor tissue; assay: Differentiation of ES cell-derived pituitary precursor tissue into ACTH-producing cells, fluorescence antibody staining; format: cell-based, mouse; settings: for expression of Pitx1: DAPT, BIO or IWP2 treatment, day 26 (FIG. 3k)
Description: Furthermore, using gfCDM medium, the aggregates were cultured under 40% O2 and 5% CO2 for 12 days in total (total 22 days). Moreover, the aggregates were treated with Notch signal inhibitor, 10 μM DAPT, for one day during days 18-19 or days 20-21 of culture.

[2] = test system: ES cell-derived pituitary precursor tissue; assay: Differentiation of ES cell-derived pituitary precursor tissue into GH-, PRL-, LH-, FSH-, TSH-positive cells; format: cell-based, mouse
Description: Mouse ES cells were differentiated into pituitary precursor tissues by an SAG treatment (400 nM for 7 days and 100 nM for 3 days, total 10 days) using the method of Example 2. Furthermore, the aggregates were continuously floating-cultured under 40% O2 and 5% CO2. The medium used was gfCDM comprising corticosteroid (200 ng/ml hydrocortisone) and 1 nM insulin, gfCDM comprising estrogen (50 ng/ml estradiol) and 1 nM insulin, or culture supernatant (conditioned medium) of mouse feeder cell, PA6 cell, in gfCDM.
The expression of growth hormone (GH), prolactin (PRL), luteinizing hormone (LH), follicle-stimulating hormone (FSH), and thyroid-stimulating hormone (TSH) was confirmed by cytochemical staining of frozen section by the fluorescence antibody method.

[3] = test system: mouse ES cell aggregates (10000 cells per aggregate); assay: Induction of pituitary precursor tissue (Lim3) in mouse ES cell aggregates by hedgehog signal treatment; format: cell-based
Description: Aggregates of mouse ES cells were formed from 10000 cells per aggregate by using the SFEBq/gfCDM method (Wataya et al, 2008, PNAS vol. 105, pp. 11796-11801), and subjected to the floating-culture as in Example 1. Immediately after the start of the differentiation culture, SAG (Danjo et al, JNS, 2011, vol. 31, pp. 1919-1933), a hedgehog agonist, was added at 100 or 400 nM, and the aggregates were cultured for a total of 10-13 days. […] The expression of Lim3, a marker of pituitary precursor tissue (Rathke's pouch), and the like was confirmed by PCR or cytochemical staining of frozen section by the fluorescence antibody method. The expression of Lim3 was also confirmed using Lim3::GFP knocked-in ES cells.

[4] = test system: hedgehog signaling; settings: cited from earlier work
[5] = test system: ES cell-derived ACTH-producing cells; assay: In vitro ACTH secretion from ES cell-derived ACTH-producing cells by CRH, ELISA of culture supernatant; format: cell-based, mouse
[6] = test system: ES cell-derived ACTH-producing cells; assay: as above; format: cell-based, mouse; settings: 10 min, SAG- and DAPT-treated aggregates
Description: Mouse ES cells were differentiated into ACTH-producing cells by a SAG treatment and a DAPT treatment (total 22 days) using the method of Example 3. The aggregates were treated with CRH (corticotropin releasing factor) and ACTH secretion was quantified. To be specific, eight aggregates were placed in 500 μl of HBSS solution and, after pre-incubation at 37° C. for 10 min, CRH was added at a final concentration of 10-10000 ng/ml, and the aggregates were incubated for 10 min. Then, the culture supernatant was recovered and measured by ELISA method (FIG. 4a).

[7] = test system: mouse ES cell aggregates; assay: SFEBq/gfCDM floating culture of mouse ES cell aggregates, non-neural head ectoderm marker Pitx2 by qPCR; format: cell-based; settings: BMP4 0.5 nM added to the medium, SFEBq/CDM-cultured ESCs
[8] = test system: human ES cells; assay: Floating aggregate culture of human ES cells with BMP4 and SAG, Pitx1 by qPCR and marker staining; format: cell-based; settings: for E-cad positive non-neural ectoderm morphology: BMP-treated group, day 25 of culture
Description: Human ES cells (12000 cells) dispersed into single-cells with trypsin were subjected to floating aggregate culture in the presence of a […] ROCK inhibitor Y-27632 (Watanabe et al, Nature Neuroscience, 2007) in the same manner as in Example 1. The culture medium used was gfCDM added with 5% KSR. From day 3 of culture, 0.5 nM, 1.5 nM or 5.0 nM BMP4 was added to the culture medium, 1000 nM SAG was added from day 6 of culture, and the floating-culture was continued.

[9] = SAG 100 or 400 nM, PCR on day 10 and later

O=C1Nc2cc(Br)ccc2/C1=C1/Nc2ccccc2/C1=N\O [BIO, 6-bromoindirubin-3′-oxime]
expression of Pitx1 [1]: greatly increased
further increase of GH-positive cells ([2]; BIO 250 nM during days 16-18 of culture, then hydrocortisone and insulin): 30-50%

C[C@H](NC(=O)Cc1cc(F)cc(F)c1)C(=O)N[C@H](C(=O)OC(C)(C)C)c1ccccc1 [DAPT]
expression of Tbx19 compared to without DAPT treatment ([1]; 10 μM DAPT for one day, days 18-19 or 20-21, SAG-treated aggregates): enhanced Tbx19 expression
percentage of ACTH-positive cells ([1]; 10 μM DAPT for one day, day 22): increased percentage
size of assemblies of Tbx19- and ACTH-highly positive cells ([1]; 10 μM DAPT treatment, assemblies in plural sites): > 30 cells
expression of Pitx1 [1]: did not increase, or rather decreased

Cc1ccc2nc(NC(=O)CSc3nc4c(c(=O)n3-c3ccccc3)SCC4)sc2c1 [IWP2]
expression of Pitx1 [1]: tended to decrease

CNC1CCC(N(Cc2cccc(-c3ccncc3)c2)C(=O)c2sc3ccccc3c2Cl)CC1 (stereo not drawn) [SAG]
gene expression of Lim3 relative to SAG non-addition group [3, 9]: 7 fold
gene expression of Lim3 relative to undifferentiated ES cells [3, 9]: 15 fold
number of Lim3-positive epithelial pouch vesicles formed in the aggregate ([3]; SAG-addition group, further 3 days in gfCDM, total 13 days): 1-7
activity compared with Shh [4]: several-fold stronger activity than Shh

Cc1nn(-c2ccccc2)c(C)c1/C=N/N1CCN(Cc2ccccc2)CC1 [SANT-1]
effect on SAG induction of Lim3 ([3]; hedgehog receptor antagonist added to SAG-treated aggregates): inhibited

C[C@]12CCC(=O)C=C1CC[C@@H]1[C@@H]2[C@@H](O)C[C@@]2(C)[C@H]1CC[C@]2(O)C(=O)CO [hydrocortisone]
GH-positive cells in the aggregate ([2]; gfCDM with 200 ng/ml hydrocortisone and 1 nM insulin for 10 days from day 20): many GH-positive cells
effect of pre-treatment on the ACTH secretion promoting effect of CRH ([5]; hydrocortisone 100 ng/ml pre-treatment for 60 min): suppressed almost completely; also recorded: suppressed the enhancement of ACTH secretion by CRH

CRH: corticotropin releasing factor, hypothalamic hormone promoting ACTH secretion (SEEPPISLDLTFHLLREVLEMARAEQLAQQAHSNRKLMEII; ends and bridges not checked; UniProt P06850 154-194, looked up)
ACTH concentration of the culture supernatant ([6]; 10 ng/ml CRH): 1.4 pg/mL
ACTH concentration of the culture supernatant ([6]; 100 ng/ml CRH): 4 pg/mL
ACTH concentration of the culture supernatant ([6]; 1000 ng/ml CRH): 8.5 to 9.5 pg/mL
ACTH concentration of the culture supernatant ([6]; 10000 ng/ml CRH): 8.5 to 9.5 pg/mL
ACTH secretion ([5]; 1000 ng/ml CRH, aggregates without SAG treatment): did not show a significant increase
ACTH secretion ([5]; CRH added, aggregates with SAG treatment but without DAPT treatment): did not show much increase
induction of ACTH secretion by releasing hormones ([5]; SAG- and DAPT-treated aggregates (FIG. 4b)): CRH-specific; also recorded: enhancement of ACTH secretion

B1: FGF8: FGF signal promoter (protein, UniProt P55075 23-233, looked up)
Fibroblast growth factor 8: QEGPGRGPALGRELASLFRAGREPQGVSQQHVREQSLVTDQLSRRLIRTYQLYSRTSGKHVQVLANKRINAMAEDGDPFAKLIVETDTFGSRVRVRGAETGLYICMNKKGKLIAKSNGKGKDCVFTEIVLENNYTALQNAKYEGWYMAFTRKGRPRKGSKTRQHQREVHFMKRLPRGHHTTEQSLRFEFLNYPPFTRSLRGSQRTWAPEPR
increase of tissues expressing Lim3 ([3]; FGF8 200 ng/ml during day 10-13, gfCDM without SAG): 30-50%

B2: BMP4: Bone Morphogenetic protein of the BMP2/4 group; exogenous BMP signal promoter (protein, UniProt P12644 293-408, looked up)
Bone morphogenetic protein 4: SPKHHSQRARKKNKNCRRHSLYVDFSDVGWNDWIVAPPGYQAFYCHGDCPFPLADHLNSTNHAIVQTLVNSVNSSIPKACCVPTELSAISMLYLDEYDKVVLKNYQEMVVEGCGCR
expression of Pitx2 [7]: increases; also recorded: elevation of Pitx2 expression
expression of Pitx1 compared to the group without the treatment ([8]; 5 nM BMP4 from day 3, 12000 cells/aggregate, qPCR day 17): about 10 fold
result when started from 3000 and 6000 human ES cells ([8]; BMP4 added to the medium): equivalent results were obtained
E-cad positive non-neural ectoderm morphology [8]: formation of E-cadherin^+ thickened non-neural ectoderm
E-cad positive non-neural ectoderm morphology ([8]; listed as BMP): a part thereof was thickened to show a placode-like structure
